Reference: ChEMBL document CHEMBL4507316 (2021)
Activity calls are given as the source filed them. The rule behind the calls is not given here.

Columns and labels:
[1] = target: Mitogen-activated protein kinase kinase kinase kinase 5 (Homo sapiens) (UniProt Q9Y4K4); assay: MAP4K5 ProQinase selectivity panel; conditions: Compound concentration 1.0 uM
[2] = target: Calcium/calmodulin-dependent protein kinase kinase 2 (Homo sapiens) (UniProt Q96RR4); assay: CAMKK2 ProQinase selectivity panel; conditions: Compound concentration 1.0 uM
[3] = target: Tyrosine-protein kinase ABL2 (Homo sapiens) (UniProt P42684); assay: ABL2 ProQinase selectivity panel; conditions: Compound concentration 1.0 uM
[4] = target: Serine/threonine-protein kinase PAK 6 (Homo sapiens) (UniProt Q9NQU5); assay: PAK6 ProQinase selectivity panel; conditions: Compound concentration 1.0 uM
Sequence of Serine/threonine-protein kinase PAK 6 (Homo sapiens) (Q9NQU5 whole entry, looked up): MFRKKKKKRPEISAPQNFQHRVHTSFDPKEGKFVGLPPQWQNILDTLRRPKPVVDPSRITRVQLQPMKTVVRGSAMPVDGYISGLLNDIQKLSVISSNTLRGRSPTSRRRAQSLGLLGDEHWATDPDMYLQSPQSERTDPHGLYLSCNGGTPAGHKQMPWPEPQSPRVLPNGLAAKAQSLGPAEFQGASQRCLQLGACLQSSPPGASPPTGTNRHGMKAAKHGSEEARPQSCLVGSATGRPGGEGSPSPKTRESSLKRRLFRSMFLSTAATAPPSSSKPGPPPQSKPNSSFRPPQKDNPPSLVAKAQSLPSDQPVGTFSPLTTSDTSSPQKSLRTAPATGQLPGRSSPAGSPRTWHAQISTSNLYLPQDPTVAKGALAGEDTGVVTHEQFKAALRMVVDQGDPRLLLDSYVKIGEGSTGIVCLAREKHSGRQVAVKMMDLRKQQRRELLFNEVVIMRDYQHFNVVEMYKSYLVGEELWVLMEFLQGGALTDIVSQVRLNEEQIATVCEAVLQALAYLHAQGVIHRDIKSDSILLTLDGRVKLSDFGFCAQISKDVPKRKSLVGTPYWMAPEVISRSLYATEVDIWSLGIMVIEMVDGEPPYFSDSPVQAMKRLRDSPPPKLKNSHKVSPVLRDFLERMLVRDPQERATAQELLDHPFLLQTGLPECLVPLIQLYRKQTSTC

[5] = target: Inhibitor of nuclear factor kappa-B kinase subunit alpha (Homo sapiens) (UniProt O15111); assay: IKK-alpha ProQinase selectivity panel; conditions: Compound concentration 1.0 uM
[6] = target: Serine/threonine-protein kinase Nek1 (Homo sapiens) (UniProt Q96PY6); assay: NEK1 ProQinase selectivity panel; conditions: Compound concentration 1.0 uM
[7] = target: Discoidin domain-containing receptor 2 (Homo sapiens) (UniProt Q16832); assay: DDR2 ProQinase selectivity panel; conditions: Compound concentration 1.0 uM
[8] = target: Myosin light chain kinase, smooth muscle (Homo sapiens) (UniProt Q15746); assay: MYLK ProQinase selectivity panel; conditions: Compound concentration 1.0 uM
[9] = test system: Tyrosine-protein kinase ABL1 (Homo sapiens), P00519 [M351T]; assay: ABL1 M351T ProQinase selectivity panel; conditions: Compound concentration 1.0 uM
[10] = target: Serine/threonine-protein kinase Nek4 (Homo sapiens) (UniProt P51957); assay: NEK4 ProQinase selectivity panel; conditions: Compound concentration 1.0 uM
[11] = test system: Tyrosine-protein kinase ABL1 (Homo sapiens), P00519 [E255K]; assay: ABL1 E255K ProQinase selectivity panel; conditions: Compound concentration 1.0 uM
[12] = target: 5-hydroxytryptamine receptor 3A (Homo sapiens) (UniProt P46098); conditions: Compound concentration 10.0 uM
Sequence of 5-hydroxytryptamine receptor 3A (Homo sapiens) (P46098 whole entry): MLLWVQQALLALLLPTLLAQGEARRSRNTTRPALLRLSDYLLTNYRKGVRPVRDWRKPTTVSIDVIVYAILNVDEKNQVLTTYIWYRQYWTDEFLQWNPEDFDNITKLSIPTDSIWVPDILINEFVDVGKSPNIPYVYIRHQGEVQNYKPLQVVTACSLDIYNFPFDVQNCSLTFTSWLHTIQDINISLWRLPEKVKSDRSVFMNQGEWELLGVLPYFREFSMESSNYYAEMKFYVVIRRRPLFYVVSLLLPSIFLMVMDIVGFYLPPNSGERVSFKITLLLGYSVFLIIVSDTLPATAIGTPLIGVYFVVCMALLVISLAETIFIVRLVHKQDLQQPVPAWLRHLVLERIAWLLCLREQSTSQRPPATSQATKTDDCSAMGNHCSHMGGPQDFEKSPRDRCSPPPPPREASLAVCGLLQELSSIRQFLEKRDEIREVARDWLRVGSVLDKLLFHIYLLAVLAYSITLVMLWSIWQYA

[13] = target: Fibroblast growth factor receptor 1 (Homo sapiens) (UniProt P11362); assay: FGF-R1 wt ProQinase selectivity panel; conditions: Compound concentration 1.0 uM
[14] = test system: Tyrosine-protein kinase ABL1 (Homo sapiens), P00519 [T315I]; assay: ABL1 T315I ProQinase selectivity panel; conditions: Compound concentration 1.0 uM
[15] = test system: Receptor-type tyrosine-protein kinase FLT3 (Homo sapiens), P36888 [UNDEFINED MUTATION]; assay: FLT3 ITD ProQinase selectivity panel; conditions: Compound concentration 1.0 uM
[16] = target: 5-hydroxytryptamine receptor 1E (Homo sapiens) (UniProt P28566); conditions: Compound concentration 10.0 uM
Sequence of 5-hydroxytryptamine receptor 1E (Homo sapiens) (P28566 whole entry): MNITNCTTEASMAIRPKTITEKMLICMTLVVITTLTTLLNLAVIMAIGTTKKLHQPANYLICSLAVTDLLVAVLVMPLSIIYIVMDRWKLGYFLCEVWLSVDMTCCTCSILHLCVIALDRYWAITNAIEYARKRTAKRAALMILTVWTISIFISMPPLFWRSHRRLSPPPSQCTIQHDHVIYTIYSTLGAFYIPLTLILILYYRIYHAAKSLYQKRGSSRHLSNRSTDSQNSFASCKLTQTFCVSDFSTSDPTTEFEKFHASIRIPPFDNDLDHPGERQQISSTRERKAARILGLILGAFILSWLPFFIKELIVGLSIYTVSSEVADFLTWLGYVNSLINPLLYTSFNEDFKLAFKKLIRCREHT

[17] = target: Muscarinic acetylcholine receptor M3 (Homo sapiens) (UniProt P20309); conditions: Compound concentration 10.0 uM
[18] = target: Serine/threonine-protein kinase Sgk1 (Homo sapiens) (UniProt O00141); assay: SGK1 ProQinase selectivity panel; conditions: Compound concentration 1.0 uM
[19] = target: RAC-gamma serine/threonine-protein kinase (Homo sapiens) (UniProt Q9Y243); assay: AKT3 ProQinase selectivity panel; conditions: Compound concentration 1.0 uM
[20] = target: Sigma intracellular receptor 2 (Homo sapiens, UniProt Q5BJF2); conditions: Compound concentration 10.0 uM
[21] = target: Mitogen-activated protein kinase kinase kinase kinase 2 (Homo sapiens) (UniProt Q12851); assay: MAP4K2 ProQinase selectivity panel; conditions: Compound concentration 1.0 uM
[22] = test system: Epidermal growth factor receptor (Homo sapiens), P00533 [UNDEFINED MUTATION]; assay: EGF-R d747-752/P753S ProQinase selectivity panel; conditions: Compound concentration 1.0 uM
[23] = target: Hepatocyte growth factor receptor (Homo sapiens) (UniProt P08581); assay: MET wt ProQinase selectivity panel; conditions: Compound concentration 1.0 uM
[24] = target: SRSF protein kinase 2 (Homo sapiens) (UniProt P78362); assay: SRPK2 ProQinase selectivity panel; conditions: Compound concentration 1.0 uM
Sequence of SRSF protein kinase 2 (Homo sapiens) (P78362 whole entry, looked up): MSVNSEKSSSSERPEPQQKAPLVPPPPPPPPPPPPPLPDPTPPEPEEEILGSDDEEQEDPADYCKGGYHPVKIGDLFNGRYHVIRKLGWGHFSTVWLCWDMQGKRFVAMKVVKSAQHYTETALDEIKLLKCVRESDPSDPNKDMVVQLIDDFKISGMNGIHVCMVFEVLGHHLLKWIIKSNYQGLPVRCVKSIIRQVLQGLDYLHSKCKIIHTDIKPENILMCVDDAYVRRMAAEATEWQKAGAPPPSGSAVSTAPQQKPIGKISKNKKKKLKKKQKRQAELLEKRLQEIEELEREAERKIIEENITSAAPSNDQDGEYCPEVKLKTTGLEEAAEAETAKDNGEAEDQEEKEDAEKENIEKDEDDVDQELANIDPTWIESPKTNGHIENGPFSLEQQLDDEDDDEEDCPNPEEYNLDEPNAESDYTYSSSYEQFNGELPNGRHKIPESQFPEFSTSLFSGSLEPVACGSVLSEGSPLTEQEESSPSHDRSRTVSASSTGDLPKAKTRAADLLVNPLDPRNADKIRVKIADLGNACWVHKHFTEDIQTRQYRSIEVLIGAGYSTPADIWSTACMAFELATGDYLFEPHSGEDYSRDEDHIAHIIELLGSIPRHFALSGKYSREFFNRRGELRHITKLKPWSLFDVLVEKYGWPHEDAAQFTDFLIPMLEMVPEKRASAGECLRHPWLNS

[25] = target: Cyclin-dependent kinase 2/cyclin A (Homo sapiens) (UniProt P24941+P20248+P78396); assay: CDK2/CycA ProQinase selectivity panel; type: protein-complex assay; conditions: Compound concentration 1.0 uM
[26] = target: Dual specificity mitogen-activated protein kinase kinase 1 (Homo sapiens) (UniProt Q02750); assay: MEK1 ProQinase selectivity panel; conditions: Compound concentration 1.0 uM
Sequence of Dual specificity mitogen-activated protein kinase kinase 1 (Homo sapiens) (Q02750 whole entry): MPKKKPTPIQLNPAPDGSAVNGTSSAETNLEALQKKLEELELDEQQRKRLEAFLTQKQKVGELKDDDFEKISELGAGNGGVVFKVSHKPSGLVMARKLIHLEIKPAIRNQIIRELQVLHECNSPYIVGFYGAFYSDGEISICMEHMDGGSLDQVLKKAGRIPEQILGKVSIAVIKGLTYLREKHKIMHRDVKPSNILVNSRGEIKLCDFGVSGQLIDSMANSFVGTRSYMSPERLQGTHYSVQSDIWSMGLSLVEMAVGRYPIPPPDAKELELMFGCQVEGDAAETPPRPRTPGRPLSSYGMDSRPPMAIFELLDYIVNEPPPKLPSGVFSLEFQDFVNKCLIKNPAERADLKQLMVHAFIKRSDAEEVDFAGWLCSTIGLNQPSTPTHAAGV

[27] = target: Eukaryotic translation initiation factor 2-alpha kinase 1 (Homo sapiens) (UniProt Q9BQI3); assay: HRI ProQinase selectivity panel; conditions: Compound concentration 1.0 uM
[28] = target: Tyrosine-protein kinase ITK/TSK (Homo sapiens) (UniProt Q08881); assay: ITK ProQinase selectivity panel; conditions: Compound concentration 1.0 uM
[29] = target: Interferon-induced, double-stranded RNA-activated protein kinase (Homo sapiens) (UniProt P19525); assay: EIF2AK2 ProQinase selectivity panel; conditions: Compound concentration 1.0 uM
[30] = target: Serine/threonine-protein kinase PLK3 (Homo sapiens) (UniProt Q9H4B4); assay: PLK3 ProQinase selectivity panel; conditions: Compound concentration 1.0 uM
[31] = target: Focal adhesion kinase 1 (Homo sapiens) (UniProt Q05397); assay: FAK ProQinase selectivity panel; conditions: Compound concentration 1.0 uM
[32] = target: Mitogen-activated protein kinase kinase kinase 8 (Homo sapiens) (UniProt P41279); assay: COT ProQinase selectivity panel; conditions: Compound concentration 1.0 uM
[33] = target: Serine/threonine-protein kinase N2 (Homo sapiens) (UniProt Q16513); assay: PRK2 ProQinase selectivity panel; conditions: Compound concentration 1.0 uM
[34] = target: PAS domain-containing serine/threonine-protein kinase (Homo sapiens) (UniProt Q96RG2); assay: PASK ProQinase selectivity panel; conditions: Compound concentration 1.0 uM
[35] = target: Mitogen-activated protein kinase kinase kinase 9 (Homo sapiens) (UniProt P80192); assay: MAP3K9 ProQinase selectivity panel; conditions: Compound concentration 1.0 uM
[36] = target: Protein kinase C delta type (Homo sapiens) (UniProt Q05655); assay: PKC-delta ProQinase selectivity panel; conditions: Compound concentration 1.0 uM
Sequence of Protein kinase C delta type (Homo sapiens) (Q05655 whole entry, looked up): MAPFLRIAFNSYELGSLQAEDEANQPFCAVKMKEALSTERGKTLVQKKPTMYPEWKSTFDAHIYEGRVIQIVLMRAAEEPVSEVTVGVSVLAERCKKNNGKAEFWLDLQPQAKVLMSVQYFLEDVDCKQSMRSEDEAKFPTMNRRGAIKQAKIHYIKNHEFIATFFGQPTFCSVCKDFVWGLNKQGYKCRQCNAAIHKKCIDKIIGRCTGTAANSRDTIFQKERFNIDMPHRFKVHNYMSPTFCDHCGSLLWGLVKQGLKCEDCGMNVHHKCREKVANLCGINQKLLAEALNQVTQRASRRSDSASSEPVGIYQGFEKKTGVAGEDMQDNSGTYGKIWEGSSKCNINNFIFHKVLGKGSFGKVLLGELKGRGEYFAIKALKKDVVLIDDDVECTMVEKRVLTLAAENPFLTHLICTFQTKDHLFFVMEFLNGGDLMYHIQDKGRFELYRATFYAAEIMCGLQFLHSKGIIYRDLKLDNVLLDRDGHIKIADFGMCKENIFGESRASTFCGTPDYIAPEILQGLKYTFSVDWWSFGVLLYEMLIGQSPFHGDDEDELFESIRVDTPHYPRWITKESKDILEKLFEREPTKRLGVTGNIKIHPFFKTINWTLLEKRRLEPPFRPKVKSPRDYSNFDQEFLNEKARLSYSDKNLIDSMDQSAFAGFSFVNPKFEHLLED

[37] = target: Heat shock protein beta-1 (Homo sapiens, UniProt P04792); assay: Inhibition of HSP27 (Ser82) (Western blot)
Sequence of Heat shock protein beta-1 (P04792 whole entry): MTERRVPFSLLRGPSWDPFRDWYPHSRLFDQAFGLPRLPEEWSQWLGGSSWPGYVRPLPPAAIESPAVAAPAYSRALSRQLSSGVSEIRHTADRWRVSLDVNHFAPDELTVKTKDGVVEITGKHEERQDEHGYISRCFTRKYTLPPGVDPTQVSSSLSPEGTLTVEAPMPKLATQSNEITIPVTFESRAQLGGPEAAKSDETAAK

[38] = target: Serine/threonine-protein kinase haspin (Homo sapiens) (UniProt Q8TF76); assay: GSG2 ProQinase selectivity panel; conditions: Compound concentration 1.0 uM
[39] = target: Casein kinase I isoform gamma-3 (Homo sapiens) (UniProt Q9Y6M4); assay: CK1-gamma3 ProQinase selectivity panel; conditions: Compound concentration 1.0 uM
[40] = target: STE20-like serine/threonine-protein kinase (Homo sapiens) (UniProt Q9H2G2); assay: SLK ProQinase selectivity panel; conditions: Compound concentration 1.0 uM
[41] = target: Cyclin-dependent kinase 2/cyclin E (Homo sapiens) (UniProt P24864+P24941+O96020); assay: CDK2/CycE ProQinase selectivity panel; type: protein-complex assay; conditions: Compound concentration 1.0 uM
[42] = target: NUAK family SNF1-like kinase 1 (Homo sapiens) (UniProt O60285); assay: ARK5 ProQinase selectivity panel; conditions: Compound concentration 1.0 uM
[43] = target: Protein kinase C beta type (Homo sapiens) (UniProt P05771); assay: PKC-beta2 ProQinase selectivity panel; conditions: Compound concentration 1.0 uM
[44] = target: Bone morphogenetic protein receptor type-1A (Homo sapiens) (UniProt P36894); assay: BMPR1A ProQinase selectivity panel; conditions: Compound concentration 1.0 uM
[45] = target: Serine/threonine-protein kinase Chk2 (Homo sapiens) (UniProt O96017); assay: CHK2 ProQinase selectivity panel; conditions: Compound concentration 1.0 uM
[46] = target: Interleukin-1 receptor-associated kinase 1 (Homo sapiens) (UniProt P51617); assay: IRAK1 ProQinase selectivity panel; conditions: Compound concentration 1.0 uM
[47] = test system: Epidermal growth factor receptor (Homo sapiens), P00533 [L858R,T790M]; assay: EGF-R T790M/L858R ProQinase selectivity panel; conditions: Compound concentration 1.0 uM
[48] = target: NUAK family SNF1-like kinase 2 (Homo sapiens) (UniProt Q9H093); assay: SNARK ProQinase selectivity panel; conditions: Compound concentration 1.0 uM
Sequence of NUAK family SNF1-like kinase 2 (Homo sapiens) (Q9H093 whole entry): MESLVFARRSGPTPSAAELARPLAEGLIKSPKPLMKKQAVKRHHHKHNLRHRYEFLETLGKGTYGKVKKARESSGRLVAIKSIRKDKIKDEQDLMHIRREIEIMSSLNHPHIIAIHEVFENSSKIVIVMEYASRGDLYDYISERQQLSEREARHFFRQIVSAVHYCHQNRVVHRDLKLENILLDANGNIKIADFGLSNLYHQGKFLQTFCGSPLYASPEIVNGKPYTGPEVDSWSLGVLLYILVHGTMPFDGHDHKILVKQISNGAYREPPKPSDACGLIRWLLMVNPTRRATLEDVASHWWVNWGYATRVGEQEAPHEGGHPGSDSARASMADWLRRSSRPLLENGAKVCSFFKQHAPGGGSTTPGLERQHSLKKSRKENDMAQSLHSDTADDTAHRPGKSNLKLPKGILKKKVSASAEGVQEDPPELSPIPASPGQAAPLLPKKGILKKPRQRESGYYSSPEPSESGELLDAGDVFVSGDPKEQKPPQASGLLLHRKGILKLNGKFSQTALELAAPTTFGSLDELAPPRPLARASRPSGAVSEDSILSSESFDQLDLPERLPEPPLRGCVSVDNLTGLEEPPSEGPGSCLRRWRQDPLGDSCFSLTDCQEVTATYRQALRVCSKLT

Sequence of Mitogen-activated protein kinase kinase kinase kinase 5 (Homo sapiens) (Q9Y4K4 whole entry, looked up): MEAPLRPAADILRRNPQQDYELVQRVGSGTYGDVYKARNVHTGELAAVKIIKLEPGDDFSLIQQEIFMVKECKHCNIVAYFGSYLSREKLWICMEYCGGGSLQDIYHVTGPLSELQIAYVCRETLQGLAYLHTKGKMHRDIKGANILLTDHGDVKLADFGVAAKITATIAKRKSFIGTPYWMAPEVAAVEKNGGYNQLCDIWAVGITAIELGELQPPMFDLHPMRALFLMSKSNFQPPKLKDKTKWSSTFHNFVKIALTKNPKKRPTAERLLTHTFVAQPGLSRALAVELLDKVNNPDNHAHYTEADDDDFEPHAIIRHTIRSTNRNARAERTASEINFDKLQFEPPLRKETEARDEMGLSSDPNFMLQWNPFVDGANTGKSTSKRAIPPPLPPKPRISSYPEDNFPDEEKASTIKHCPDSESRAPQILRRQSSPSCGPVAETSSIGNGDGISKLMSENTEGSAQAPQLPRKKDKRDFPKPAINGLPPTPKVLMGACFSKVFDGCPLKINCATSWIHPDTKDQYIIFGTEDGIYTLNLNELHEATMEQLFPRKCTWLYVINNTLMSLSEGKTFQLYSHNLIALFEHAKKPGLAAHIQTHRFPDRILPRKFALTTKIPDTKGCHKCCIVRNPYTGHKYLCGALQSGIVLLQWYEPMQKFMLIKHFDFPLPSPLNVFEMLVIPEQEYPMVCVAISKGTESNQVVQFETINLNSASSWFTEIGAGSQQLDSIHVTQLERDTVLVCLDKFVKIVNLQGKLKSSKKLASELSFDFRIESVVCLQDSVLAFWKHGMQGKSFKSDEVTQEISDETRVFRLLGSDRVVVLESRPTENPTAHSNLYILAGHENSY

Work on `O=C1c2ccc(Nc3ccc(F)cc3F)cc2CCc2ccc(OC[C@H](O)CO)cc21` [Skepinone-L] yielded a % Residual activity with Skepinone-L [1] of 84%, a % Residual activity with Skepinone-L [2] of 97% and a % Residual activity with Skepinone-L [3] of 99%. For the same molecule, the % Residual activity with Skepinone-L [4] was 101%, the % Residual activity with Skepinone-L [5] was 88% and the % Residual activity with Skepinone-L [6] was 83%. For the same molecule, the % Residual activity with Skepinone-L [7] was 102%, the % Residual activity with Skepinone-L [8] was 78% and the % Residual activity with Skepinone-L [9] was 102%. For the same molecule, the % Residual activity with Skepinone-L [10] was 99%, the % Residual activity with Skepinone-L [11] was 105% and the inhibition [12] was 6.53%. For the same molecule, the % Residual activity with Skepinone-L [13] was 117%, the % Residual activity with Skepinone-L [14] was 93% and the % Residual activity with Skepinone-L [15] was 101%. It also gave an inhibition [16] of 18.8%, an inhibition [17] of 11.2% and a % Residual activity with Skepinone-L [18] of 90%. For the same molecule, the % Residual activity with Skepinone-L [19] was 94%, the inhibition [20] was 53.1% and the % Residual activity with Skepinone-L [21] was 89%. It also gave a % Residual activity with Skepinone-L [22] of 93%, a % Residual activity with Skepinone-L [23] of 108% and a % Residual activity with Skepinone-L [24] of 101%. It also gave a % Residual activity with Skepinone-L [25] of 101%, a % Residual activity with Skepinone-L [26] of 79% and a % Residual activity with Skepinone-L [27] of 106%. The % Residual activity with Skepinone-L [28] was 97%, the % Residual activity with Skepinone-L [29] was 86% and the % Residual activity with Skepinone-L [30] was 99%. The % Residual activity with Skepinone-L [31] was 113%, the % Residual activity with Skepinone-L [32] was 91% and the % Residual activity with Skepinone-L [33] was 95%. It also gave a % Residual activity with Skepinone-L [34] of 88%, a % Residual activity with Skepinone-L [35] of 90% and a % Residual activity with Skepinone-L [36] of 104%. The IC50 [37] was 25 nM (active), the % Residual activity with Skepinone-L [38] was 82% and the % Residual activity with Skepinone-L [39] was 95%. It also gave a % Residual activity with Skepinone-L [40] of 39%, a % Residual activity with Skepinone-L [41] of 85% and a % Residual activity with Skepinone-L [42] of 115%. For the same molecule, the % Residual activity with Skepinone-L [43] was 97%, the % Residual activity with Skepinone-L [44] was 100% and the % Residual activity with Skepinone-L [45] was 89%. The % Residual activity with Skepinone-L [46] was 101%, the % Residual activity with Skepinone-L [47] was 93% and the % Residual activity with Skepinone-L [48] was 115%.
